Our source for the IC50 values is ChEMBL document CHEMBL3639081, “Azabicyclo compound and salt thereof” (2014).

The target in the experiment is Heat shock protein HSP 90-alpha (Homo sapiens, UniProt P07900). The experiment can be described thus: AlphaScreen Competitive Assay: The HSP90-binding activity was measured by an AlphaScreen competitive assay system. The purified HSP90 solution was diluted with a binding buffer (50 mM Tris-HCl (pH 7.5), 150 mM NaCl, 0.1% Triton-X100, 1 mM DTT, 0.1% BSA) and added to a 384-well plate (No. 3673, Corning Incorporated) containing test substances. After reaction at room temperature for 2 hr, biotin-labeled geldanamycin was added to each reaction solution in an amount of 40 nM, followed by reaction for further 1 hr. Detection mix (20 mM HEPES-KOH (pH 7.5), 0.5% BSA, 0.04 mg/mL Nickel Chelate Acceptor beads, 0.04 mg/mL Streptavidin-coated Donor beads) (No. 6760619C, Perkin Elmer, Inc.) was added to each well in the same amount as that of the reaction solution. After reaction in a dark place at room temperature for 1 hr, the fluorescence intensity in each well was measured with a multilabel plate reader, EnVision (Perkin Elmer, Inc.).

In general, IC50 refers to the point on the concentration scale where inhibition reaches its midpoint. As to `COc1cc(C(N)=O)ccc1-n1nc(C(C)C)c2c(-n3cnc(-c4cnn(C)c4)c3)ccnc21`, the concentration for half-maximal inhibition (IC50) is 90 nM.
